What was measured:
[1] = tested on: A549; assay: Antiproliferative activity against human A549 cells assessed as inhibition of cell growth incubated for 48 hrs by MTT assay; format: functional, cell-based; settings: A549, 48 h
[2] = tested on: HCT-116; assay: Antiproliferative activity against human HCT-116 cells assessed as inhibition of cell growth incubated for 48 hrs by MTT assay; format: functional, cell-based; settings: HCT-116, 48 h
[3] = tested on: U2OS; assay: Antiproliferative activity against human U2OS cells assessed as inhibition of cell growth incubated for 48 hrs by MTT assay; format: functional, cell-based
[4] = tested on: MDA-MB-231; assay: Antiproliferative activity against human MDA-MB-231 cells assessed as inhibition of cell growth incubated for 48 hrs by MTT assay; format: functional, cell-based; settings: MDA-MB-231, 48 h
[5] = tested on: A549; assay: Antiproliferative activity against human A549 cells expressing Hsp90-Cdc37 protein assessed as inhibition of cell growth incubated for 48 hrs by MTT assay; format: functional, cell-based; settings: A549, 48 h
[6] = tested on: A549; assay: Antiproliferative activity against human A549 cells expressing Hsp90 protein assessed as inhibition of cell growth incubated for 48 hrs by MTT assay; format: functional, cell-based; settings: A549, 48 h
[7] = tested on: A549; assay: Antiproliferative activity against human A549 cells expressing Cdc37 protein assessed as inhibition of cell growth incubated for 48 hrs by MTT assay; format: functional, cell-based; settings: A549, 48 h
[8] = tested on: A549; assay: Antitumor activity against human A549 cells xenografted in BALB/c mouse lung tumor model assessed as tumor weight at 1 mg/kg, ip measured every day for 21 days by caliper method; format: functional; settings: time 21 day
[9] = tested on: A549; assay: Antitumor activity against human A549 cells xenografted in BALB/c mouse lung tumor model assessed as tumor inhibition rate at 1 mg/kg, ip measured every day for 21 days by caliper method relative to control; format: functional; settings: A549, 504 h, time 21 day

| SMILES | IC50 [1] [nM] | IC50 [2] [nM] | IC50 [3] [nM] | IC50 [4] [nM] | IC50 [5] [µM] | IC50 [6] [µM] | IC50 [7] [µM] | Activity [8] [g] | inhibition in vivo at 1 mg/kg [9] [%] |
| --- | --- | --- | --- | --- | --- | --- | --- | --- | --- |
| CC1=C(O)C(=O)C=C2C1=CC=C1[C@@]2(C)CC[C@@]2(C)[C@@H]3C[C@](C)(C(=O)OCCCn4cc([N+](=O)[O-])nc4Br)CC[C@]3(C)CC[C@]12C | 800 | 660 | 600 | 1150 | – | – | – | – | – |
| CC1=C(O)C(=O)C=C2C1=CC=C1[C@@]2(C)CC[C@@]2(C)[C@@H]3C[C@](C)(C(=O)O)CC[C@]3(C)CC[C@]12C [CELASTROL] | 1680 | 1810 | 1860 | 1980 | > 100 | > 100 | > 100 | 0.67 | 52.7 |
| COC(=O)c1cn(CCCOC(=O)[C@]2(C)CC[C@]3(C)CC[C@]4(C)C5=CC=C6C(=CC(=O)C(O)=C6C)[C@]5(C)CC[C@@]4(C)[C@@H]3C2)cn1 | 740 | 690 | 1350 | 1650 | – | – | – | – | – |
| CC1=C(O)C(=O)C=C2C1=CC=C1[C@@]2(C)CC[C@@]2(C)[C@@H]3C[C@](C)(C(=O)OCCCCn4cc([N+](=O)[O-])nc4Cl)CC[C@]3(C)CC[C@]12C | 790 | 720 | 620 | 1020 | – | – | – | – | – |
| CC1=C(O)C(=O)C=C2C1=CC=C1[C@@]2(C)CC[C@@]2(C)[C@@H]3C[C@](C)(C(=O)OCCCCCCn4cnc(C#N)c4C#N)CC[C@]3(C)CC[C@]12C | 1080 | 1160 | 1730 | 1660 | – | – | – | – | – |
| CC1=C(O)C(=O)C=C2C1=CC=C1[C@@]2(C)CC[C@@]2(C)[C@@H]3C[C@](C)(C(=O)OCCCCCn4ccnc4[N+](=O)[O-])CC[C@]3(C)CC[C@]12C | 710 | 600 | 680 | 980 | – | – | – | – | – |
| CC1=C(O)C(=O)C=C2C1=CC=C1[C@@]2(C)CC[C@@]2(C)[C@@H]3C[C@](C)(C(=O)OCCCCCCn4ccnc4[N+](=O)[O-])CC[C@]3(C)CC[C@]12C | 730 | 640 | 830 | 1210 | – | – | – | – | – |
| CC1=C(O)C(=O)C=C2C1=CC=C1[C@@]2(C)CC[C@@]2(C)[C@@H]3C[C@](C)(C(=O)OCCCCn4cnc([N+](=O)[O-])c4)CC[C@]3(C)CC[C@]12C | 770 | 700 | 890 | 890 | – | – | – | – | – |
| COC(=O)c1cn(CCCCCCOC(=O)[C@]2(C)CC[C@]3(C)CC[C@]4(C)C5=CC=C6C(=CC(=O)C(O)=C6C)[C@]5(C)CC[C@@]4(C)[C@@H]3C2)cn1 | 1090 | 1340 | 1480 | 1920 | – | – | – | – | – |
| CC1=C(O)C(=O)C=C2C1=CC=C1[C@@]2(C)CC[C@@]2(C)[C@@H]3C[C@](C)(C(=O)OCCCn4cnc([N+](=O)[O-])c4)CC[C@]3(C)CC[C@]12C | 670 | 630 | 700 | 690 | – | – | – | – | – |
| CC1=C(O)C(=O)C=C2C1=CC=C1[C@@]2(C)CC[C@@]2(C)[C@@H]3C[C@](C)(C(=O)OCCCCn4ccnc4[N+](=O)[O-])CC[C@]3(C)CC[C@]12C | 1060 | 1550 | 910 | 1020 | – | – | – | – | – |
| CC1=C(O)C(=O)C=C2C1=CC=C1[C@@]2(C)CC[C@@]2(C)[C@@H]3C[C@](C)(C(=O)OCCCn4cnc(C)c4)CC[C@]3(C)CC[C@]12C | 1970 | 1290 | 1450 | 1550 | – | – | – | – | – |
| CC1=C(O)C(=O)C=C2C1=CC=C1[C@@]2(C)CC[C@@]2(C)[C@@H]3C[C@](C)(C(=O)OCCCCCn4cnc(C#N)c4C#N)CC[C@]3(C)CC[C@]12C | 1450 | 790 | 1470 | 1570 | – | – | – | – | – |
| COC(=O)c1cn(CCCCCOC(=O)[C@]2(C)CC[C@]3(C)CC[C@]4(C)C5=CC=C6C(=CC(=O)C(O)=C6C)[C@]5(C)CC[C@@]4(C)[C@@H]3C2)cn1 | 780 | 670 | 880 | 1550 | – | – | – | – | – |
| CC1=C(O)C(=O)C=C2C1=CC=C1[C@@]2(C)CC[C@@]2(C)[C@@H]3C[C@](C)(C(=O)OCCCCCCn4cnc([N+](=O)[O-])c4)CC[C@]3(C)CC[C@]12C | 790 | 630 | 880 | 950 | – | – | – | – | – |
| CC1=C(O)C(=O)C=C2C1=CC=C1[C@@]2(C)CC[C@@]2(C)[C@@H]3C[C@](C)(C(=O)OCCCCCn4cc([N+](=O)[O-])nc4Cl)CC[C@]3(C)CC[C@]12C | 750 | 780 | 600 | 930 | – | – | – | – | – |
| COC(=O)c1cn(CCCCOC(=O)[C@]2(C)CC[C@]3(C)CC[C@]4(C)C5=CC=C6C(=CC(=O)C(O)=C6C)[C@]5(C)CC[C@@]4(C)[C@@H]3C2)cn1 | 1040 | 950 | 1520 | 1870 | – | – | – | – | – |
| CC1=C(O)C(=O)C=C2C1=CC=C1[C@@]2(C)CC[C@@]2(C)[C@@H]3C[C@](C)(C(=O)OCCCCCCn4cc([N+](=O)[O-])nc4Br)CC[C@]3(C)CC[C@]12C | 1320 | 1930 | 1460 | 1050 | – | – | – | – | – |
| CC1=C(O)C(=O)C=C2C1=CC=C1[C@@]2(C)CC[C@@]2(C)[C@@H]3C[C@](C)(C(=O)OCCCn4cnc(C#N)c4C#N)CC[C@]3(C)CC[C@]12C | 790 | 720 | 1450 | 1450 | – | – | – | – | – |
| CC1=C(O)C(=O)C=C2C1=CC=C1[C@@]2(C)CC[C@@]2(C)[C@@H]3C[C@](C)(C(=O)OC/C=C/Cn4cnc([N+](=O)[O-])c4)CC[C@]3(C)CC[C@]12C | 710 | 640 | 710 | 1030 | – | – | – | – | – |
| CC1=C(O)C(=O)C=C2C1=CC=C1[C@@]2(C)CC[C@@]2(C)[C@@H]3C[C@](C)(C(=O)OCCCn4ccnc4)CC[C@]3(C)CC[C@]12C | 1570 | 1090 | 1650 | 1550 | – | – | – | – | – |
| CC1=C(O)C(=O)C=C2C1=CC=C1[C@@]2(C)CC[C@@]2(C)[C@@H]3C[C@](C)(C(=O)OCCCCCn4cnc([N+](=O)[O-])c4)CC[C@]3(C)CC[C@]12C | 710 | 610 | 600 | 600 | – | – | – | – | – |
| CC1=C(O)C(=O)C=C2C1=CC=C1[C@@]2(C)CC[C@@]2(C)[C@@H]3C[C@](C)(C(=O)OCCCCn4cc([N+](=O)[O-])nc4Br)CC[C@]3(C)CC[C@]12C | 930 | 1850 | 680 | 1220 | – | – | – | – | – |
| CC1=C(O)C(=O)C=C2C1=CC=C1[C@@]2(C)CC[C@@]2(C)[C@@H]3C[C@](C)(C(=O)OC/C=C/Cn4cc([N+](=O)[O-])nc4Cl)CC[C@]3(C)CC[C@]12C | 810 | 700 | 610 | 980 | – | – | – | – | – |
| CC1=C(O)C(=O)C=C2C1=CC=C1[C@@]2(C)CC[C@@]2(C)[C@@H]3C[C@](C)(C(=O)OCCCn4ccnc4[N+](=O)[O-])CC[C@]3(C)CC[C@]12C | 750 | 1050 | 800 | 900 | – | – | – | – | – |
| CC1=C(O)C(=O)C=C2C1=CC=C1[C@@]2(C)CC[C@@]2(C)[C@@H]3C[C@](C)(C(=O)OCCCCn4cnc(C#N)c4C#N)CC[C@]3(C)CC[C@]12C | 1660 | 1530 | 1580 | 1670 | – | – | – | – | – |
| CC1=C(O)C(=O)C=C2C1=CC=C1[C@@]2(C)CC[C@@]2(C)[C@@H]3C[C@](C)(C(=O)OCCCCCCn4cc([N+](=O)[O-])nc4Cl)CC[C@]3(C)CC[C@]12C | 900 | 1120 | 910 | 990 | – | – | – | – | – |
| CC1=C(O)C(=O)C=C2C1=CC=C1[C@@]2(C)CC[C@@]2(C)[C@@H]3C[C@](C)(C(=O)OCCCCCn4cc([N+](=O)[O-])nc4Br)CC[C@]3(C)CC[C@]12C | 810 | 1100 | 670 | 980 | – | – | – | – | – |
| COC(=O)[C@]12CCC(C)(C)C[C@H]1[C@H]1C(=O)C=C3[C@@]4(C)C=C(C#N)C(=O)C(C)(C)[C@@H]4CC[C@@]3(C)[C@]1(C)CC2 [BARDOXOLONE METHYL] | 630 | 840 | 740 | 560 | – | – | – | – | – |
